Data: US20130261173A1, “CYCLODEXTRIN-BASED POLYMERS FOR THERAPEUTIC DELIVERY” (CERULEAN PHARMA INC., priority 2009, published 2013)
Several values for one entry are separate records, joined by “and”; a condition that tells them apart may be missing. Equal values may be shown once. Read-outs that look alike come from different tables or passages of the source.

Tests used:
[1] = tested on: B16.F10 cells; assay: Efficacy in a murine melanoma model (subcutaneous B16.F10 tumors); assay type: in vivo, male C57BL/6 mice
Procedure: Animals were monitored for any morbidity and adverse effect three times a week.
Tumor volume was calculated with a (width×width×length)/2 mm^3 formula.

[2] = tested on: B16.F10 cells; assay: CellTiter-Glo Luminescent Cell Viability Assay (cytotoxicity); assay type: cell-based, murine
Procedure: To measure the cytotoxic effect of CDP-linker-docetaxel compounds, the CellTiter-Glo Luminescent Cell Viability Assay (CTG) was used. […] B16.F10 cells, grown to 85-90% confluency in 150 cm2 flasks (passage <30), were resuspended in media (MEM-alpha, 10% HI-FBS, 1×antibiotic-antimycotic solution) and added to 96-well opaque-clear bottom plates at a concentration of 1500 cells/well in 200 μL/well. The cells were incubated at 37° C. with 5% CO2 for 24 hours. The following day, serial dilutions of 2× concentrated particles and 2× concentrated free drug were made in 12-well reservoirs with media to specified concentrations. The media in the plates was replaced with […], of fresh media and 100 μL of the corresponding serially diluted drug. Three sets of plates were prepared with duplicate treatments. Following 24, 48 and 72 hours of incubation at 37° C. with 5% CO2, the media in the plates was replaced with 100 μL of fresh media and 100 μL of CTG solution, and then incubated for 5 minutes on a plate shaker at room temperature set to 450 rpm and allowed to rest for 15 minutes. Viable cells were measured by luminescence using a microtiter plate reader. The data was plotted as % viability vs. concentration and standardized to untreated cells.

[3] = Tolerability in the murine melanoma model (body weight); assay type: in vivo, male C57BL/6 mice
Procedure: The treatments were administered IV into the tail vein at a dose volume of 10 mL/kg, beginning on post-implantation day 5, when the mean tumor volume was ca. 60 mm^3. Animals were monitored for any morbidity and adverse effect three times a week. In addition, body weight and tumor volume were also measured three times a week.
Tolerability was determined by changes in body weight, expressed as a percent of the initial body weight on post-implantation day 5. Health monitoring was conducted three times a week to evaluate lethargy, tremors, hypothermia, ataxia, hind limb paralysis etc. The criteria at which a mouse was removed from the study were >20% body weight loss or severe morbidity or hind limb paralysis.

[4] = 15 mg/kg IV, three injections over 2 weeks (twice per week)
[5] = 15 mg/kg IV, three injections over 2 weeks (twice per week), listed as free docetaxel
[6] = 15 mg/kg IV, weekly schedule for 3 injections
[7] = 30 mg/kg IV, biweekly schedule for 2 injections
[8] = 30 mg/kg IV, weekly schedule for 3 injections (study of 1.4, 2.3, 4.2, 5.2)
[9] = 30 mg/kg IV, weekly schedule for 3 injections (study of 1.5)

In the case of `CC(=O)O[C@@]12CO[C@@H]1C[C@H](O)[C@@]1(C)C(=O)[C@H](O)C3=C(C)[C@@H](OC(=O)[C@H](O)[C@@H](NC(=O)OC(C)(C)C)c4ccccc4)C[C@@](O)([C@@H](OC(=O)c4ccccc4)[C@H]21)C3(C)C` [Free docetaxel, docetaxel, reference compound], the “Tumor growth delay (TGD)” value [1, 4] is reported as 15 days, the “Tumor growth inhibition (% TGI)” value [1, 4] is reported as 97% and the “increase in TGD” value [1, 4] is reported as 79%. For the same compound, the “Tumor growth inhibition (% TGI)” value [1, 5] was 97%, the “day the mean tumor volume endpoint (≧3000 mm^3) was reached” value (from here on “day the mean tumor volume endpoint”) [1, 5] was 34 days and 35 days and the survival ([1]; 15 mg/kg IV, three injections over 2 weeks, day 33) was 50%. The survival ([1]; 15 mg/kg IV, three injections over 2 weeks, day 40) was 0%, the “Tumor growth delay (TGD)” value [1, 6] was 7 days and the “Tumor growth inhibition (% TGI)” value [1, 6] was 68%. The “day the mean tumor volume endpoint” value [1, 6] was 26 days, the “increase in TGD” value [1, 6] was 37% and the “Tumor growth inhibition (% TGI)” value ([1]; 15 mg/kg IV, weekly schedule for 3 injections, listed as free docetaxel) was 68%. For the same compound, the survival ([1]; 30 mg/kg IV, biweekly for 2 injections, day 24) was 50%, the survival ([1]; 30 mg/kg IV, biweekly for 2 injections, day 31) was 0% and the “Tumor growth delay (TGD)” value [1, 7] was 7 days. The “Tumor growth inhibition (% TGI)” value [1, 7] was 73%, the “day the mean tumor volume endpoint” value [1, 7] was 26 days and the “Tumor growth inhibition (% TGI)” value ([1]; 30 mg/kg IV, biweekly schedule for 2 injections, listed as free docetaxel) was 73%. The survival ([1]; 30 mg/kg IV, weekly for 3 injections (study of 1.4, 2.3, 5.2), day 29) was 50%, the survival ([1]; 30 mg/kg IV, weekly for 3 injections (study of 1.4, 2.3, 5.2), day 38) was 0% and the survival ([1]; 30 mg/kg IV, weekly for 3 injections (study of 1.5), day 40) was 50%. The survival ([1]; 30 mg/kg IV, weekly for 3 injections (study of 1.5), day 45) was 0%, the “Tumor growth delay (TGD)” value [1, 8] was 12 days and the “day the mean tumor volume endpoint” value [1, 8] was 31 days. The “increase in TGD” value [1, 8] was 63%, the “Tumor growth delay (TGD)” value [1, 9] was 21 days and the “day the mean tumor volume endpoint” value [1, 9] was 41 days. For the same compound, the “increase in TGD” value [1, 9] was 105%, the IC50 ([2]; Mus musculus, B16.F10 cells, 72 hours after treatment) was 0.2 to 2 nM and the “Maximum body weight loss (%)” value [3, 4] was 3%. For the same compound, the “Maximum body weight loss (%)” value [3, 6] was 0%, the “Maximum body weight loss (%)” value [3, 7] was 5% and the “Maximum body weight loss (%)” value [3, 8] was 8%. The “Maximum body weight loss (%)” value [3, 9] was 12%.
With “CDP-2′-alanine glycolate-docetaxel [CDP-Ala Gly-DTX formulation]” the IC50 [2] was 0.4 to 2 nM.
In the case of “CDP-2′-aminoethoxyethoxy-Docetaxel [CDP-aminoethoxyethoxy-DTX formulation]”, the “Maximum body weight loss (%)” value [3, 6] is reported as 7% and the “Maximum body weight loss (%)” value [3, 8] is reported as 23%.
For “CDP-2′-glycine-docetaxel [CDP-Gly-DTX formulation]”, the IC50 ([2]; B16.F10 cells, 72 hours after treatment) was 1.2 to 3.7 nM.
For “CDP-2′-hexanoate-docetaxel [CDP-Hex-DTX formulation]”, the “Tumor growth delay (TGD)” value ([1]; mouse, in vivo) was 10 days, the “Tumor growth inhibition (% TGI)” value ([1]; mouse, in vivo) was 66% and the “increase in TGD” value ([1]; mouse, in vivo) was 53%. The IC50 [2] was 325 to 440 nM.
With “CDP-dithiolethyloxy-carbonate-docetaxel [CDP-ethane-S—S-ethane-DTX formulation]” the “day the mean tumor volume endpoint” value ([1]; mouse, in vivo) was 21 days and 24 days, the IC50 [2] was 23 nM and the “Maximum body weight loss (%)” value [3, 6] was 0%. The “Maximum body weight loss (%)” value [3, 8] was 0%.
